Converted amounts (≈) assume the structure as drawn. “And” between values parts separate entries of the source, which are not always exact repeats. Equal entries are not always repeated. “Also recorded” adds a separate entry of the source. Where two headings read alike, the source gives them in different places.
What was measured:
tumor growth = assay: anti-tumor activity of GABA-linked conjugate compared to the unconjugated anticancer agent (model not given); assay type: in vivo; settings: model not specified
From the text: The anti-tumor activity of LOC-GABA-doxorubicin was studied in three tumor models.

[1] = system: Madison 109 (M109) mouse lung carcinoma
Protocol: In all of the following in vivo experiments, the parent compound, doxorubicin, was injected intravenously (i.v.) in saline, while the fatty acid conjugates of doxorubicin were injected i.v. in 10% Cremophor® EL-P/10% ethanol/80% saline. The dosing schedule was Q3D×5.
T-C in this assay is defined as the time in days for the drug-treated tumors to double their mass three times subtracted […] to double their mass three times.

HT-29 human colon tumor = assay: nude mouse xenograft model of the HT-29 human colon tumor; assay type: in vivo; settings: for Complete Regressions / Days Delay T-C / Drug-related Deaths: nude mouse
Protocol: (§1) The dosing schedule was Q3D×5.
In the nude mouse xenograft model of the HT-29 human colon tumor (Table 3), doxorubicin produced a T-C delay of 15.3 days at the MTD dose of 6 mg/kg, whereas P-367 (LOC-GABA-doxorubicin) produced a T-C delay of 32 days at 50 mg/kg and 22 at 25 mg/kg. Note that the activity of the lowest dose of LOC-GABA-doxorubicin is approximately equivalent to the highest, MTD of doxorubicin itself.

[2] = system: MDA-MB-435 human breast tumor; assay: nude mouse xenograft model of the MDA-MB-435 human breast tumor; assay type: in vivo; settings: for Complete Regressions / Days Delay T-C / Drug-related Deaths: nude mouse
Protocol: as §1
In the nude mouse xenograft model of the MDA-MB-435 human breast tumor (Table 4), doxorubicin produced a T-C delay of 14 days at the approximate MTD dose of 6 mg/kg (1/10 drug-related deaths). In the same model, LOC-GABA-doxorubicin produced a T-C delay of 13 days at 50 mg/kg (6/10 drug-related deaths) and 1.5 days at 25 mg/kg (0 drug-related deaths).

M109-Lung Tumor = M109-Lung Tumor Model (Table 5, second study with OOC-GABA-doxorubicin); assay type: in vivo, mouse
From the text: as §1

[3] = Toxicology: maximum tolerated dose, i.v. Q3D×5; settings: mouse, in vivo, iv, i.v. 5 times on a once every three day schedule
From the text: as §1

[4] = cited from earlier work
[5] = Solubility in solvents/excipients; assay type: physicochemical
From the text: Table 7 summarizes the solubility of LOC-GABA-doxorubicin in several solvents.

[6] = Stability in mouse serum/plasma at 37° C., HPLC; assay type: in vitro ADME
Protocol: […] Serum samples added with only ethanol/Cremophor® were used as controls.
Aliquots (100 μL) were taken from the spiked samples at 0, 1, 4, 8 and 24 h time intervals. Proteins were precipitated from the spiked solutions by the addition of 300 μL of acetonitrile. The suspensions were centrifuged and the supernatant transferred to separate microfuge tubes. The precipitate was washed twice with 300 μL of 90% acetonitrile. The wash solutions were combined with the supernatant and evaporated to dryness using a Centrivap Concentrator. The residue was then dissolved in 100 μL of methanol. Vortex mixing and sonication for 30 sec each were used to help dissolve the residue. The solution was then centrifuged at 10,000 rpm for 15 min. A 20 μL aliquot of the supernatant was analyzed by HPLC (Phenomenex column, C18, 250×4.6 mm, 5 u) using the following gradient conditions: […]
UV detection: 487 nm; column temperature: 40° C.; flow rate: 1 mL/min. Analytes were quantitated by comparison of peak areas from direct injections of standard solutions with those obtained from samples subjected to the extraction procedure. The percent recovery of spiked analytes was calculated by comparison of the sample peak areas before incubation (time: 0 h) with those subjected to incubation at 37° C. […]

## CC/C=C\C/C=C\C/C=C\C/C=C\C/C=C\C/C=C\CCC(=O)NCCCC(=O)O[C@H]1C[C@H]2OC[C@@]2(OC(C)=O)[C@H]2[C@H](OC(=O)c3ccccc3)[C@]3(O)C[C@H](OC(=O)[C@H](O)[C@@H](NC(=O)c4ccccc4)c4ccccc4)C(C)=C([C@@H](OC(C)=O)C(=O)[C@]12C)C3(C)C
Tumor growth
  anti-tumor activity compared to the unconjugated drug: did not show superior anti-tumor activity

## COc1cccc2c1C(=O)c1c(O)c3c(c(O)c1C2=O)C[C@@](O)(C(=O)CO)C[C@@H]3O[C@H]1C[C@H](N)[C@H](O)[C@H](C)O1 [Doxorubicin, reference compound]
[1]; 1 mg/kg i.v. Q3D×5
  Complete Regressions: 0
  Drug-related Deaths: 0/5
  Tumor Growth Delay T-C: 2.6 days
[1]; 2 mg/kg i.v. Q3D×5
  Complete Regressions: 0
  Drug-related Deaths: 0/5
  Tumor Growth Delay T-C: 2.2 days
[1]; 4 mg/kg i.v. Q3D×5
  Complete Regressions: 0
  Drug-related Deaths: 0/5
  Tumor Growth Delay T-C: 4.0 days
[1]; 6 mg/kg i.v. Q3D×5
  Complete Regressions: 0
[1]; 6 mg/kg i.v. Q3D×5, time for tumors to double their mass three times, treated vs vehicle
  Tumor Growth Delay T-C: 5.7 days
[1]; at any dose
  complete responses: no complete responses
HT-29 human colon tumor; 2 mg/kg i.v. Q3D×5
  Complete Regressions: 0
  Days Delay T-C: 2.2 days
  Drug-related Deaths: 0/10
HT-29 human colon tumor; 4 mg/kg i.v. Q3D×5
  Complete Regressions: 0
  Days Delay T-C: 4.0 days
  Drug-related Deaths: 0/10
HT-29 human colon tumor; 6 mg/kg i.v. Q3D×5
  Complete Regressions: 0
  Days Delay T-C: 5.7 days
  Drug-related Deaths: 0/10
HT-29 human colon tumor; 6 mg/kg i.v. Q3D×5, listed as doxorubicin
  Days Delay T-C: 15.3 days
[2]; 2 mg/kg i.v. Q3D×5
  Complete Regressions: 0
  Days Delay T-C: 0.0 days
  Drug-related Deaths: 0/5
[2]; 4 mg/kg i.v. Q3D×5
  Complete Regressions: 0
  Days Delay T-C: 6.6 days
  Drug-related Deaths: 0/5
[2]; 6 mg/kg i.v. Q3D×5
  Complete Regressions: 0
  Days Delay T-C: 14 days
  Drug-related Deaths: 1/10
M109-Lung Tumor; 2 mg/kg i.v. Q3D×5
  Complete Regressions: 0
  Days Delay T-C: 0.0 days
  Drug-related Deaths: 0/5
M109-Lung Tumor; 4 mg/kg i.v. Q3D×5
  Complete Regressions: 0
  Days Delay T-C: 1.4 days
  Drug-related Deaths: 0/5
M109-Lung Tumor; 6 mg/kg i.v. Q3D×5
  Complete Regressions: 0
  Days Delay T-C: 0.9 days
  Drug-related Deaths: 0/5
M109-Lung Tumor; 8 mg/kg i.v. Q3D×5
  Complete Regressions: 0
  Days Delay T-C: 4.6 days
  Drug-related Deaths: 0/5
[3]
  MTD: 6 mg/kg
[3]; nude
  MTD: ~6 mg/kg
[4]; cumulative dose 550 mg/m^2
  incidence of cardiomyopathy: 7%
[4]; cumulative dose 600 mg/m^2
  incidence of cardiomyopathy: 15%
[4]; cumulative dose 700 mg/m^2
  incidence of cardiomyopathy: 30%

## CCCCC/C=C\C/C=C\CCCCCCCCOC(=O)NCCCC(=O)N[C@H]1C[C@H](O[C@H]2C[C@](O)(C(=O)CO)Cc3c(O)c4c(c(O)c32)C(=O)c2c(OC)cccc2C4=O)O[C@@H](C)[C@H]1O [LOC-GABA-doxorubicin, linoleyl alcohol-GABA-doxorubicin]
[1]; 50 mg/kg i.v. Q3D×5
  Drug-related Deaths: 0/5
  Tumor Growth Delay T-C: 28 days
[1]; 75 mg/kg i.v. Q3D×5
  Complete Regressions: 0
  Drug-related Deaths: 0/5
  Tumor Growth Delay T-C: 25 days
[1]; 100 mg/kg i.v. Q3D×5
  Complete Regressions: 0
  Drug-related Deaths: 4/5
[1]; 150 mg/kg i.v. Q3D×5
  Complete Regressions: 0
  Drug-related Deaths: 4/5
HT-29 human colon tumor; 12.5 mg/kg i.v. Q3D×5
  Complete Regressions: 0
  Days Delay T-C: 5.4 days
  Drug-related Deaths: 0/10
HT-29 human colon tumor; 25 mg/kg i.v. Q3D×5
  Complete Regressions: 0
  Days Delay T-C: 22 days
  Drug-related Deaths: 0/10
HT-29 human colon tumor; 50 mg/kg i.v. Q3D×5
  Complete Regressions: 0
  Days Delay T-C: 32 days
  Drug-related Deaths: 0/10
HT-29 human colon tumor; 75 mg/kg i.v. Q3D×5
  Complete Regressions: 0
  Days Delay T-C: 34 days
  Drug-related Deaths: 6/10
HT-29 human colon tumor; HT29 human colon carcinoma xenograft
  anti-tumor activity compared to doxorubicin: activity superior to doxorubicin; also recorded: superior anti-tumor activity
[2]; 12.5 mg/kg i.v. Q3D×5
  Complete Regressions: 0
  Days Delay T-C: -2.0 days
  Drug-related Deaths: 0/10
[2]; 25 mg/kg i.v. Q3D×5
  Complete Regressions: 0
  Days Delay T-C: 1.5 days
  Drug-related Deaths: 0 and 0/10
[2]; 50 mg/kg i.v. Q3D×5
  Complete Regressions: 0
  Days Delay T-C: 13 days
  Drug-related Deaths: 6/10
[2]; 75 mg/kg i.v. Q3D×5
  Complete Regressions: 0
  Days Delay T-C: 21 days
  Drug-related Deaths: 9/10
[2]; MDA-MB-435 human breast carcinoma xenograft
  anti-tumor activity compared to doxorubicin: active, but somewhat less active than doxorubicin and somewhat less efficacious than doxorubicin and not
M109-Lung Tumor; 35 mg/kg i.v. Q3D×5
  Complete Regressions: 0
  Days Delay T-C: 1.1 days
  Drug-related Deaths: 0/5
M109-Lung Tumor; 50 mg/kg i.v. Q3D×5
  Complete Regressions: 0
  Days Delay T-C: 5.2 days
  Drug-related Deaths: 0/5
M109-Lung Tumor; 65 mg/kg i.v. Q3D×5
  Complete Regressions: 0
  Days Delay T-C: 9.3 days
  Drug-related Deaths: 0/5
M109-Lung Tumor; 80 mg/kg i.v. Q3D×5
  Complete Regressions: 0
  Days Delay T-C: 9.5 days
  Drug-related Deaths: 0/5
[3]
  MTD: 50 to 75 mg/kg
[5]; aqueous with cosolvent or surfactant or cyclodextrin, Cremophor ® EL-P:ethanol:saline (10:10:80)
  solubility: 16.8 mg/mL (≈ 18.2 mM)
[5]; dimethyl isosorbide (DMI), organic solvent or mixture
  solubility: 490 mg/mL (≈ 533 mM)
[5]; ethanol, organic solvent or mixture
  solubility: 252 mg/mL (≈ 274 mM)
[6]; 10 mg/mL formulation pH 7.5, 10 parts to 90 parts plasma
  time stable in mouse plasma: more than 8 hours
[6]; mouse plasma, 24 hours
  drug still present: over 90%
Tumor growth
  anti-tumor activity compared to the unconjugated drug: superior

From US20120148595A1, “GABA-LINKED ANTHRACYCLINE-LIPID CONJUGATES” (Luitpold Pharmaceuticals, Inc., priority 2009, published 2012)
